Where a SMILES comes first, the peptide text is derived from it. [ ]: non-standard residue; d: D form. The star is where a group is joined. ξ: configuration not given here. ξV = CC(C)C(N)C(=O)O; BrAc = O=C(CBr)*
Assays:
[1] = tested on: HL-60 acute promyelocytic leukaemia cell line; test: Cell proliferation (CellTiter 96 AQueous MTS/PMS), HL-60; format: cell-based, human; conditions: for IC50: Homo sapiens, HL-60, 72 hours of incubation, read-out: CI50 for various cell lines (nM) HL-60
Protocol: (§1) The effects of the compounds of the invention on the proliferation of cancer cells were studied on various human cancer cell lines of various tissue origins (MCF-7: breast cancer, MCF-7/adr adriamycin-resistant breast cancer, ARH-77: myeloma, ARH-77/Dox: doxorubicin (other name for adriamycin)-resistant myeloma, HL-60: acute promyelocytic leukaemia, HL-60/R10: doxorubicin-resistant acute promyelocytic leukaemia). The cancer cells used for this study were incubated at 37° C. in the presence of one of the compounds of the invention added to the culture medium at various concentrations.
(§2) The cancer cell lines originate from the ATCC (American Type Culture Collection) in the case of MCF-7, ARH-77 and HL-60, from Pharmacell (Paris, France) for HL-60/R10, from Oncodesign (Dijon, France) for ARH-77/Dox and from the Pitié Salpetrière Hospital for MCF-7/adr. They were cultivated in a RPMI 1640 medium containing 2 mM L-glutamine and supplemented with 10% foetal calf serum. All the cell lines were maintained in culture at 37° C. in a moist atmosphere containing 5% CO2. Cell proliferation was evaluated using the “CellTiter 96® AQueous” reagent (Promega, Wis., USA) while adhering to the manufacturer's instructions. The cells were seeded in 96-well culture plates in a proportion of from 5,000 to 10,000 cells per well in 200 μl of culture medium. After 24 hours of preincubation at 37° C., the compounds of the invention dissolved in dimethyl sulphoxide (DMSO) were added individually to each of the wells in a proportion of 2 μl per well. After 72 hours of incubation at 37° C. in a moist atmosphere containing 5% CO2, 40 μL of a MTS/PMS ([3-(4,5-dimethylthiazol-2-yl)-5-(3-carboxymethoxyphenyl)-2-(4-sulphophenyl)-2H-tetrazolium phenazine methosulphate) solution were added to each well.

[2] = tested on: HL-60/R10 doxorubicin-resistant acute promyelocytic leukaemia cell line; test: Cell proliferation (CellTiter 96 AQueous MTS/PMS), HL-60/R10; format: cell-based, human; conditions: for IC50: Homo sapiens, HL-60/R10, 72 hours of incubation, read-out: CI50 for various cell lines (nM) HL-60/R10
Protocol: as §1, §2

[3] = tested on: MCF-7/adr adriamycin-resistant breast cancer cell line; test: Cell proliferation (CellTiter 96 AQueous MTS/PMS), MCF-7/adr; format: cell-based; conditions: for IC50: Homo sapiens, NCI/ADR-RES, MCF-7/adr, 72 hours of incubation, concentration that induces the death of 50% of the cells, read-out: CI50 for various cell lines (nM) MCF-7/adr
Protocol: as §1, §2

[4] = tested on: MCF-7 breast cancer cell line; test: Cell proliferation (CellTiter 96 AQueous MTS/PMS), MCF-7; format: cell-based; conditions: MCF7; for IC50: Homo sapiens, MCF-7, 72 hours of incubation, concentration that induces the death of 50% of the cells, read-out: CI50 for various cell lines (nM) MCF-7
Protocol: as §1, §2

[5] = tested on: ARH-77/Dox doxorubicin-resistant myeloma cell line; test: Cell proliferation (CellTiter 96 AQueous MTS/PMS), ARH-77/Dox; format: cell-based; conditions: Homo sapiens, 72 hours of incubation, read-out: CI50 for various cell lines (nM) ARH-77/Dox
Protocol: as §1, §2

ARH-77 myeloma cell line = test: Cell proliferation (CellTiter 96 AQueous MTS/PMS), ARH-77; format: cell-based; conditions: Homo sapiens, 72 hours of incubation, read-out: CI50 for various cell lines (nM) ARH-77
Protocol: as §1, §2

## COc1ccc(CNC(=O)C(C)(C)N(C(=O)CCl)c2ccc(F)cc2)cc1 [Compound 186, 2-[(2-Chloro-acetyl)-(4-fluoro-phenyl)-amino]-N-(4-methoxy-benzyl)-2-methyl-propionamide]
[1]
  IC50: 362 nM
[2]
  IC50: 78 nM

## Cc1c(Cl)cccc1N(C(=O)CCl)C(C)(C)C(=O)NCc1ccc(F)cc1 [Compound 188, 2-[(2-Chloro-acetyl)-(3-chloro-2-methyl-phenyl)-amino]-N-(4-fluoro-benzyl)-2-methyl-propionamide]
[1]
  IC50: 2500 nM
[2]
  IC50: 176 nM

## C#CC(=O)N(c1cccc(C(F)(F)F)c1)C(C(=O)NCc1ccccc1)c1cccs1 (centres unmarked) [Compound 1, Propynoic Acid (benzylcarbamoylthiophen-2-yl-methyl)-(3-trifluoromethylphenyl)amide]
[1]
  IC50: 1340 nM
[2]
  IC50: 32 nM
[3]
  IC50: 1.6 nM
[4]
  IC50: 224 nM
[5]
  IC50: 12 nM
ARH-77 myeloma cell line
  IC50: 46 nM

## C#CC(=O)N(c1cccc(C(F)(F)F)c1)C(C(=O)NCc1ccccc1)c1ccc(C)s1 (centres unmarked) [Compound 21, Propynoic Acid [benzylcarbamoyl-(5-methylthiophen-2-yl)-methyl]-(3-trifluoromethylphenyl)amide]
[1]
  IC50: 2020 nM
[2]
  IC50: 43 nM
[5]
  IC50: 6 nM
ARH-77 myeloma cell line
  IC50: 60 nM

## C#CC(=O)N(c1cccc(C(F)(F)F)c1)C(C(=O)NC1CCCCC1)c1cccs1 (centres unmarked) [Compound 3, Propynoic Acid (cyclohexylcarbamoylthiophen-2-yl-methyl)-(3-trifluoromethylphenyl)amide]
[1]
  IC50: 2960 nM
[2]
  IC50: 46 nM
[3]
  IC50: 2.6 nM
[4]
  IC50: 275 nM
[5]
  IC50: 5 nM
ARH-77 myeloma cell line
  IC50: 58 nM

## C#CC(=O)N(c1ccc(C(F)(F)F)cc1)C(C(=O)NCc1ccccc1)c1cccs1 (centres unmarked) [Compound 4, Propynoic Acid (benzylcarbamoylthiophen-2-yl-methyl)-(4-trifluoromethylphenyl)amide]
[1]
  IC50: 1630 nM
[2]
  IC50: 76 nM
[3]
  IC50: 0.9 nM
[5]
  IC50: 25 nM
ARH-77 myeloma cell line
  IC50: 103 nM

## CC(C)C(NC(=O)CBr)C(=O)NCC(=O)O (centres unmarked) [BADLG, reference compound] (BrAc-[ξV]-Gly-OH)
[1]; HL60, no cytotoxic activity detected for concentrations below 10 μM, same conditions as above
  cytotoxic activity (concentration at which detected): ≥ 10 µM
[2]; HL60/R10, no cytotoxic activity detected for concentrations below 10 μM, same conditions as above
  cytotoxic activity (concentration at which detected): ≥ 10 µM
[3]; MCF7/adr, no cytotoxic activity detected for concentrations below 10 μM, same conditions as above
  cytotoxic activity (concentration at which detected): ≥ 10 µM
[4]; no cytotoxic activity detected for concentrations below 10 μM, same conditions as above
  cytotoxic activity (concentration at which detected): ≥ 10 µM

## N#Cc1cccc(N(C(=O)CCl)C(C(=O)NC2CCCCC2)c2cccs2)c1 (centres unmarked) [Compound 121, 2-[(2-Chloroacetyl)-(3-cyanophenyl)amino]-N-cyclohexyl-2-thiophen-2-yl-acetamide]
[3]
  IC50: 70 nM
[4]
  IC50: 252 nM

## C#CC(=O)N(c1cccc(C(F)(F)F)c1)C(C(=O)NC1CCCCC1)c1ccc(C)cc1C (centres unmarked) [Compound 100, Propynoic Acid [cyclohexylcarbamoyl-(2,4-dimethylphenyl)methyl]-(3-trifluoromethylphenyl)amide]
[3]
  IC50: 0.5 nM
[4]
  IC50: 308 nM

## C#CC(=O)N(c1ccc(C(F)(F)F)cc1)C(C(=O)NC1CCCCC1)c1cccs1 (centres unmarked) [Compound 2, Propynoic Acid (cyclohexylcarbamoylthiophen-2-yl-methyl)-(4-trifluoromethylphenyl)amide]
[1]
  IC50: 2080 nM
[2]
  IC50: 95 nM
[3]
  IC50: 0.7 nM
[4]
  IC50: 150 nM
[5]
  IC50: 6 nM
ARH-77 myeloma cell line
  IC50: 92 nM

## C#CC(=O)N(c1ccc(C(O)(C(F)(F)F)C(F)(F)F)cc1)C(C(=O)NC1CCCCC1)c1cccs1 (centres unmarked) [Compound 29, Propynoic Acid (cyclohexylcarbamoylthiophen-2-yl-methyl)-[4-(2,2,2-trifluoro-1-hydroxy-1-trifluoromethylethyl)phenyl]amide]
[3]
  IC50: 18 nM
[4]
  IC50: 877 nM

## CC(C)c1ccc(N(C(=O)CCl)C(C(=O)NC2CCCCC2)c2ccc(OCCCN3CCN(C)CC3)cc2)c(F)c1 (centres unmarked) [Compound 192, 2-[(2-Chloro-acetyl)-(2-fluoro-4-isopropyl-phenyl)-amino]-N-cyclohexyl-2-{4-[3-(4-methyl-piperazin-1-yl)-propoxy]-phenyl}-acetamide]
[1]
  IC50: 524 nM
[2]
  IC50: 140 nM

## C#CC(=O)N(c1ccc(C(C)(C)C)cc1)C(C(=O)NC1CCCCC1)c1cccs1 (centres unmarked) [Compound 52, Propynoic Acid (4-tert-butylphenyl)(cyclohexylcarbamoylthiophen-2-yl-methyl)amide]
[3]
  IC50: 3.5 nM
[4]
  IC50: 708 nM

## C#CC(=O)N(c1cccc(C(F)(F)F)c1)C(C(=O)NC1CCCCC1)c1cccc(F)c1F (centres unmarked) [Compound 106, Propynoic Acid [cyclohexylcarbamoyl-(2,3-difluorophenyl)methyl]-(3-trifluoromethylphenyl)amide]
[3]
  IC50: 1 nM
[4]
  IC50: 260 nM

Reference: patent US8519188B2, “Compounds which can be used for the treatment of cancers” (Marc-Henry Pitty, priority 2008, dated 2013)
